Among the test systems are AGS; PNT1A; SW1710; KATOIII; MDAMB468; HLE; SNU886; SW480; WSUDLCL2; SW1990; A2058.
Holding throughout (assay): Cell proliferation assay (MTS)
Type in all cases: cell-based, human

Description for A2058: (§1) The sensitivity of a panel of human cancer cell lines to the effects of compounds was determined in a standard proliferation assay.
(§2) Cells were plated in 96 well plates at densities of 1000-6000 cells per well in RPMI media containing 10% FBS. After incubation at 37° C. for 16 hours, various concentrations of compound were added to the assay plates. After incubation for an additional 72 h, the viable cells were determined by the addition of MTS reagent (Promega #3582) to each well for 2 h. MTS is a tetrazolium salt that is bioreduced by metabolically active cells in the presence of an electron coupling reagent to formazan. The formazan product was then quantitated by absorbance at 490 nm, as an indicator of the relative number of live cells. In order to determine the GI50 (concentration at which growth of cells was inhibited by 50%) the relative number of cells present at the time of drug addition was determined by comparison with the MTS readout before the drug was added, and this value was subtracted from the 72 hr value of untreated cells as a measure of cell growth during the assay.
Description for AGS: as §1, §2
Description for HLE: as §1
(§3) Cells were plated in 96 well plates at densities of 1000-6000 cells per well in RPMI media containing 10% FBS. After incubation at 37° C. for 16 hours, various concentrations of compound were added to the assay plates. After incubation for an additional 72 h, the viable cells were determined by the addition of MTS reagent (Promega #3582) to each well for 2 h. […] The formazan product was then quantitated by absorbance at 490 nm, as an indicator of the relative number of live cells. In order to determine the GI50 (concentration at which growth of cells was inhibited by 50%) the relative number of cells present at the time of drug addition was determined by comparison with the MTS readout before the drug was added, and this value was subtracted from the 72 hr value of untreated cells as a measure of cell growth during the assay.
Description for KATOIII: as §1, §3
Description for MDAMB468: as §1, §3
Description for PNT1A: as §1, §2
Description for SNU886: as §1, §3
Description for SW1710: as §1, §3
Description for SW1990: as §1, §2
Description for SW480: as §1, §3
Description for WSUDLCL2: as §1, §3

The GI50 is the concentration that inhibits growth by half. In the case of `CCn1nc(C2CCN(C(=O)CCO)CC2)nc1-c1cnc(N)c(-c2nnc(C(C)(C)C)o2)n1` [Example 3, 1-(4-(5-(5-amino-6-(5-tert-butyl-1,3,4-oxadiazol-2-yl)pyrazin-2-yl)-1-ethyl-1H-1,2,4-triazol-3-yl)piperidin-1-yl)-3-hydroxypropan-1-one], the Category result in the test on AGS, in the test with PNT1A, with SW1710, with KATOIII, in the test on MDAMB468 and in the test with HLE was “Resistant (resistant (GI50>1.0 μM))” in each case. Moreover, the Category entry in the test with SNU886, with SW480, with WSUDLCL2, in the test with SW1990 and with A2058 was “Resistant (resistant (GI50>1.0 μM))” throughout. The GI50 came to 1.41 µM in the test with AGS (Homo sapiens, Stomach, PIK3CA MUT); 2.17 µM in the test with PNT1A (Homo sapiens, Prostate, PIK3CA WT); 5.34 µM in the test with SW1710 (Homo sapiens, Bladder, PIK3CA WT); 9.15 µM with KATOIII (Homo sapiens, KATO III, Stomach, PIK3CA WT); 9.33 µM in the test on MDAMB468 (Homo sapiens, MDA-MB-468, Breast, PIK3CA WT); 13.5 µM with HLE (Homo sapiens, Liver, PIK3CA WT). Further, the GI50 turned out to be 15.6 µM in the test on SNU886 (Homo sapiens, SNU-886, Liver, PIK3CA WT); 15.9 µM in the test on SW480 (Homo sapiens, Colon, PIK3CA WT); 17.7 µM in the test with WSUDLCL2 (Homo sapiens, Blood/lymph, PIK3CA WT); 28.3 µM in the test with SW1990 (Homo sapiens, Pancreas, PIK3CA WT); 30 µM with A2058 (Homo sapiens, Skin, PIK3CA WT).

The values above are taken from US9156831B2, “Chemical compounds” (ASTRAZENECA AB, priority 2013, dated 2015).
